Values quoted from earlier work in US11878081B1, “Pharmaceutical formulations of tafamidis” (TaP Pharmaceuticals, AG, priority 2022, dated 2024).
Where two headings read alike, the source gives them in different places.

Legend:
[1] = as stated by the '116 publication
[2] = 20 mg in 3.0 mL, equilibration 1 h, UHPLC
[3] = capsule formulation of Table B/C, 61 mg, pH 6.8 PBS 900 ml, paddle 50 RPM, 37° C.

Row | Compound | stability [1] | solubility [1] | stability ([1]; listed as tafamidis form 1) | concentration of tafamidis in saturated solution (solubility) ([2]; FaSSIF) [µg/mL] | concentration of tafamidis in saturated solution (solubility) ([2]; FeSSIF) [µg/mL] | concentration of tafamidis in saturated solution (solubility) ([2]; SGF) [µg/mL] | Cumulative drug release ([3]; 0 min) [%] | Cumulative drug release ([3]; 5 min) [%] | Cumulative drug release ([3]; 10 min) [%] | Cumulative drug release ([3]; 15 min) [%] | Cumulative drug release ([3]; 20 min) [%] | Cumulative drug release ([3]; 30 min) [%] | Cumulative drug release ([3]; 45 min) [%] | Cumulative drug release ([3]; 60 min) [%]
1 | O=C(O)c1ccc2nc(-c3cc(Cl)cc(Cl)c3)oc2c1 [form 4, 2-(3,5-dichlorophenyl)-1,3-benzoxazole-6-carboxylic acid] | unstable |  |  |  |  |  |  |  |  |  |  |  |  | 
2 | O=C(O)c1ccc2nc(-c3cc(Cl)cc(Cl)c3)oc2c1 [‘441 patent's tafamidis crystal form 1, 2-(3,5-dichlorophenyl)-1,3-benzoxazole-6-carboxylic acid] |  | low solubility | more stable than forms 2, 4, and 6 | 9.0 | 0.6 | 1.5 | 0.0 | 14.0 | 27.3 | 29.1 | 28.1 | 27.6 | 26.8 | 21.8
